Results on 24 compounds are retold here after patent US20090318491A1 (priority 2006, published 2009).

The target in one experiment is T1, α3β4* nAChR (Bos taurus, UniProt Q07263+Q8SPU6).
T1 construct: 100 μL of the calf adrenal membrane protein fraction (60-70 μg); from tissue; host or cells: calf adrenals, membrane fraction
Description: biochemical. The format is binding, calf.

For the next experiment, the target named is T2, (α1)2β1γδ nAChR (Tetronarce californica, UniProt P02710+P02714+P02718).
T2 construct: 100 μL of the Torpedo californica electroplax fraction (60-70 μg); from tissue; host or cells: Torpedo californica electric organ (electroplax) membranes
Description: biochemical. The class given is binding, Torpedo californica. How it is done: Preparation of Torpedo californica Electroplax
Frozen samples of Torpedo californica electric organ (−80° C.) were placed on ice for 30-60 min and allowed to thaw slowly before the membrane preparation. The tissue was homogenised in an ice-cold HSS-buffer (Ultraturrax at 750 rpm) and centrifuged (30,000×g, 10 min, 4° C.). The pellets were collected, washed four times with HSS-buffer through re-homogenization and centrifugation at the same settings. The remaining pellets were collected, re-suspended in HSS and stored in aliquots at −80° C.
One hour before the experiments the tissues were slowly thawed, homogenised in HSS-buffer and centrifuged (25,000×g, 20 min, 4° C.). The pellets were re-suspended in fresh HSS-buffer and used for radioligand binding assays.
Competition Assay Using (±)-[^3H]Epibatidine ([^3H]Epi) and Torpedo californica Electroplax ((α1)2β1γδ nAChR)
(§1) A dilution row of 6-9 concentrations of the test compound was prepared. Each assay sample, with a total volume of 500 μL contained 200 μL of the test compound, 100 μL of (±)-[^3H]epibatidine and 100 μL of the Torpedo californica electroplax fraction (60-70 μg). Non-specific binding was determined in the presence of 300 μM (−)-nicotine tartrate salt. The samples were homogenised and incubated for 90 min at 22° C. The incubation was terminated by vacuum filtration through glass fibre filters pre-soaked in 1% poly(ethyleneimine). The filters were rinsed three times with TRIS-buffer, punched out and transferred into 4 mL scintillation vials. The scintillation vials were filled with scintillation cocktail (2 mL) and the radioactivity was measured using a liquid scintillation counter.
Assays were carried out in duplicates, triplicate or quadruplicates.
(§2) Biological evaluation of the compounds on various nicotinic actylcholine receptors (nAChRs) was conducted with cells described below. […] Functional agonist activity of the cytisines in cells using a fluorescence assay sensitive to changes in cytosolic calcium.

The next experiment deals with T3, α4β2* nAChR (Rattus norvegicus, UniProt P09483+P12390).
T3 construct: Frozen rat brains were thawed slowly before the preparation of the P2 rat brain membrane fraction; from tissue; host or cells: rat brain (without cerebellum and medulla), P2 membrane fraction
Description: biochemical. The format is binding. As for the experimental part: (§3) Preparation of Rat Brains
(§4) Frozen rat brains were thawed slowly before the preparation of the P2 rat brain membrane fraction (30-60 min on ice, afterwards at room temperature). […] After the determination of the wet weight (1.32 g on average), the brains were pressed into a pulp using a syringe and homogenised in saccharose buffer with a glass teflon homogenizator (Potter, 10 seconds). The tissue was then centrifuged (1,000×g, 20 min, 4° C.), the supernatant (S1) aspirated with a Pasteur pipette and stored on ice. The P1 pellet was re-suspended in saccharose buffer and the centrifugation was repeated. The supernatant S1′ was collected and added to the supernatant S1. The combined supernatants were centrifuged (25,000×g, 20 min, 4° C.), the supernatant S2 was removed and the pellet P2 collected and diluted with HSS-buffer. The buffer volume added was calculated on the basis of the wet weight in a ratio 1:2.
(§5) The final pellet was stored in aliquots at −80° C. On the day of the experiment, the P2 membrane fraction was thawed, diluted with HSS-buffer (30-fold volume), homogenised and centrifuged (35,000×g, 10 min, 4° C.). The collected pellet was suspended in HSS-buffer and used in the radioligand binding experiments.
Competition Assay Using (±)-[^3H]Epibatidine ([^3H]Epi) and Rat Brain P2-Fraction (α4β2*nAChR)
as §1, with “contained 100 μL of the membrane protein (60 μg), 100 μL of (±)-[^3H]epibatidine (0.5 nM), 100 μL of HSS-buffer and” for “contained”, “test compound” for “test compound, 100 μL of (±)-[^3H]epibatidine and 100 μL of the Torpedo californica electroplax fraction (60-70 μg).”, “The filter” for “The filters”
Assays were carried out in duplicate, triplicates or quadruplicates.
as §2

A further experiment addresses T4, α7* nAChR (Rattus norvegicus, UniProt Q05941).
T4 construct: Frozen rat brains were thawed slowly before the preparation of the P2 rat brain membrane fraction; from tissue; host or cells: rat brain P2 membrane fraction
Put plainly: Competition assay using [3H]methyllycaconitine and rat brain P2-fraction. The format is binding. To be noted: preliminary results; read-out: α7* [3H]MLA rat brain Ki. How it is done:
as §3, §4, §5
Competition Assay Using [^3H]Methyllycaconitine ([^3H]MLA) and Rat Brain P2-Fraction (α7*nAChR)
A dilution row of 6-9 concentrations of the test compound was prepared. Each assay sample, with a total volume of 250 μL contained 50 μL of the test compound, 100 μL of [^3H]MLA and 100 μL of the P2-membrane protein fraction (60-70 μg). Non-specific binding was determined in the presence of 1 μM MLA. The samples were homogenised and incubated for 120 min at 22° C. The incubation was terminated by vacuum filtration through glass fibre filters pre-soaked in 1% poly(ethyleneimine). The filters were rinsed three times with TRIS-buffer, punched out and transferred into 4 mL scintillation vials. The scintillation vials were filled with scintillation cocktail (2 mL) and the radioactivity was measured using a liquid scintillation counter.
Assays were carried out in duplicates, triplicates or quadruplicates.

Each structure is given as a SMILES string.

T2 sequence (P02710 25-461): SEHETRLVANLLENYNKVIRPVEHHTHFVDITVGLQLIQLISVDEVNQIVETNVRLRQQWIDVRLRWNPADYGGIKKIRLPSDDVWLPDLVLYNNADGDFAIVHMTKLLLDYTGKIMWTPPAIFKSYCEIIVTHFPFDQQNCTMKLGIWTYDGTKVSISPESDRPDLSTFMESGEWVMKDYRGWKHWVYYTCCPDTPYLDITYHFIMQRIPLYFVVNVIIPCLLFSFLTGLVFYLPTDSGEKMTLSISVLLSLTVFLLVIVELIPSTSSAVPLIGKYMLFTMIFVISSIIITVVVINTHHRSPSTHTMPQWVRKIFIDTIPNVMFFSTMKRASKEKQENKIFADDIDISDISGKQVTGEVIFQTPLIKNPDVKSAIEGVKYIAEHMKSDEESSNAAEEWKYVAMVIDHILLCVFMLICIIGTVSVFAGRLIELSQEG
T2 sequence (P02712 25-493, further chain): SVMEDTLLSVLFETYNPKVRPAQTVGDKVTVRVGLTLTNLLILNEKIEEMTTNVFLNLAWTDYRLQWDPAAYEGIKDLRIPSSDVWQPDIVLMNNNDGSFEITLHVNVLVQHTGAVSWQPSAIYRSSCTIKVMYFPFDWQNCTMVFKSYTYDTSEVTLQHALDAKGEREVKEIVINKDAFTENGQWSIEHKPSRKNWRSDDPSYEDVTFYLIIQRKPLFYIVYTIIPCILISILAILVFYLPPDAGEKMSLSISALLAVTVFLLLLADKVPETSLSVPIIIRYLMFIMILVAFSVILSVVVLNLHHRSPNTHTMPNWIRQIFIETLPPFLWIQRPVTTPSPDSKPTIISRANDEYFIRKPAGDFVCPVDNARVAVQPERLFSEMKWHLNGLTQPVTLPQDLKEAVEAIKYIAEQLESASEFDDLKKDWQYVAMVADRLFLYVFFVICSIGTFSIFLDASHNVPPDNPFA
T2 sequence (P02718 22-522): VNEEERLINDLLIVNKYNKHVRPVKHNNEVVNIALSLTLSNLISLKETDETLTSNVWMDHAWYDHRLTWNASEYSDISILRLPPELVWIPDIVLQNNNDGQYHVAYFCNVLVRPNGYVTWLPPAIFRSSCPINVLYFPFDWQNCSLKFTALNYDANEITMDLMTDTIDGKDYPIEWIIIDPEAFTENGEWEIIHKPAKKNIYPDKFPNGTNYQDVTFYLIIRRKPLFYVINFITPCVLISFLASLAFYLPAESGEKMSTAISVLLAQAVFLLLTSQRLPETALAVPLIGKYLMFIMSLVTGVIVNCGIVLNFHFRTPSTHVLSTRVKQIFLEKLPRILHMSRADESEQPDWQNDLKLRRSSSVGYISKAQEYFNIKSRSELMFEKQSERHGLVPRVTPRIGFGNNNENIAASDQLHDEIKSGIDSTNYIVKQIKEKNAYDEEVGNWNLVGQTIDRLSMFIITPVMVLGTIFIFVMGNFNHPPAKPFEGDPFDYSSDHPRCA
T2 sequence (P02714 18-506): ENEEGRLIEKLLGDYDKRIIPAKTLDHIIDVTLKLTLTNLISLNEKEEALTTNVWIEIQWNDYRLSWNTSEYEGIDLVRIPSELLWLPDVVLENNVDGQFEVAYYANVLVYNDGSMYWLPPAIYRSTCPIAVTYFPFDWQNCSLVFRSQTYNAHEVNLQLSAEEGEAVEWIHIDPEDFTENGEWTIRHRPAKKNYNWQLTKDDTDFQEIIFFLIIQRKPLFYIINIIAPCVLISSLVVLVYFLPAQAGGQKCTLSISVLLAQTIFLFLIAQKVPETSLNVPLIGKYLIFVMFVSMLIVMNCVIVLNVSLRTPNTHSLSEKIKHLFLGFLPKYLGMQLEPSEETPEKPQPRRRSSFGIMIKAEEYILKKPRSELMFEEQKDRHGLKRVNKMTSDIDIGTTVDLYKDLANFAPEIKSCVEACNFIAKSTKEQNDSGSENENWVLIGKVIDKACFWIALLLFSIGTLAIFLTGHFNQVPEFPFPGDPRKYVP
T4 sequence (Q05941 23-502): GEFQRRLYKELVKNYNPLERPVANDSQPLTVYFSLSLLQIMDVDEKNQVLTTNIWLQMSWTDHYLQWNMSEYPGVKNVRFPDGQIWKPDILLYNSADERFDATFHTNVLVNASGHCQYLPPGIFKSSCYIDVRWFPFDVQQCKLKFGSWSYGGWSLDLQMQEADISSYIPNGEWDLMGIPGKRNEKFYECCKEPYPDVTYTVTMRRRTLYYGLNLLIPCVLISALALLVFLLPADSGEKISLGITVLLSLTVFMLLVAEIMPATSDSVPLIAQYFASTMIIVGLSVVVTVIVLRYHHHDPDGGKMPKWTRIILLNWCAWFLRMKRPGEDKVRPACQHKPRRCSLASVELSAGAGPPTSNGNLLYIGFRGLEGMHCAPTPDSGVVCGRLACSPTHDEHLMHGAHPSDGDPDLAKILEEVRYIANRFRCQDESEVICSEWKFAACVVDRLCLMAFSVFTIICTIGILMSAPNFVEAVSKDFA
T3 sequence (P12390 25-500): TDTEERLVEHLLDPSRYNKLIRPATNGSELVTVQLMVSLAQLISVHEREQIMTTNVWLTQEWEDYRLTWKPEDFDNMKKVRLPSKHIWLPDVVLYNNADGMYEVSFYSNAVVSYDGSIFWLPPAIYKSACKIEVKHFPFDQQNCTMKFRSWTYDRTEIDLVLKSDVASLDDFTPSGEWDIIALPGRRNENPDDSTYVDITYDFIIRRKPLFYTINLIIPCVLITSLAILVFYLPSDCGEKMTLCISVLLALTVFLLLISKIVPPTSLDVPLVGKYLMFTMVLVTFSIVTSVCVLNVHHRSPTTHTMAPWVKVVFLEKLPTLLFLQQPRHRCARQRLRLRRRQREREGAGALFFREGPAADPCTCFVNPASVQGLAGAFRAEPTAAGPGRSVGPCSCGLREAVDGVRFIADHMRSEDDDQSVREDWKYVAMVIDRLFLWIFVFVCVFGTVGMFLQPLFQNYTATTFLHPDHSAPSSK
T3 sequence (P09483 31-630): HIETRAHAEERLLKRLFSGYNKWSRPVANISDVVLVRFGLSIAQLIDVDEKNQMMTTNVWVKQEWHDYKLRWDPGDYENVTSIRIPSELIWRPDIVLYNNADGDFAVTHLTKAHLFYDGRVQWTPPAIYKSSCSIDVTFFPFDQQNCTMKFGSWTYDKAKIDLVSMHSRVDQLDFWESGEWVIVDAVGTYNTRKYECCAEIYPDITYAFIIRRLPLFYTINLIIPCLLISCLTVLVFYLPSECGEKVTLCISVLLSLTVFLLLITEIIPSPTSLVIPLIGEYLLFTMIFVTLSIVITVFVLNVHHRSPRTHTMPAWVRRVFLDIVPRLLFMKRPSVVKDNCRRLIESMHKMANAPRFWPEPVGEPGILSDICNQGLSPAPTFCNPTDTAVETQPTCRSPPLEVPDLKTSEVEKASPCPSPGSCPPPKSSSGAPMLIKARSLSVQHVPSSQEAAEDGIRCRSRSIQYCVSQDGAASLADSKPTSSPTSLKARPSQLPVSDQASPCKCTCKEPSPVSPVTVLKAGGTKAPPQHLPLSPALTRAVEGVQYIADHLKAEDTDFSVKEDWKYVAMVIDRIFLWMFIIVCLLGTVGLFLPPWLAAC
T1 sequence (Q07263 22-495): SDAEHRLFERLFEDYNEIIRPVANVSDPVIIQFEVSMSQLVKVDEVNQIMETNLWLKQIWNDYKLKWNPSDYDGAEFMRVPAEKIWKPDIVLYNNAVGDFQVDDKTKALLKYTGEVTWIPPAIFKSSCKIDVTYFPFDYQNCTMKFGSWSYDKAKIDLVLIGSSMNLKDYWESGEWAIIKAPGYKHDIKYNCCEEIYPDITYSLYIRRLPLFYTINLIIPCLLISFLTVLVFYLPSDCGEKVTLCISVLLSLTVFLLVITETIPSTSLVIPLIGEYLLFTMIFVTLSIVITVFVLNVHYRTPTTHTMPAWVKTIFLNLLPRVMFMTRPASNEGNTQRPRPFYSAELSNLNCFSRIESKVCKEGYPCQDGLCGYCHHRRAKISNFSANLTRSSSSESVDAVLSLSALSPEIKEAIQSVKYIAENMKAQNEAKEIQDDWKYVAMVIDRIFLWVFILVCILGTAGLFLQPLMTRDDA
T1 sequence (Q8SPU6 20-496): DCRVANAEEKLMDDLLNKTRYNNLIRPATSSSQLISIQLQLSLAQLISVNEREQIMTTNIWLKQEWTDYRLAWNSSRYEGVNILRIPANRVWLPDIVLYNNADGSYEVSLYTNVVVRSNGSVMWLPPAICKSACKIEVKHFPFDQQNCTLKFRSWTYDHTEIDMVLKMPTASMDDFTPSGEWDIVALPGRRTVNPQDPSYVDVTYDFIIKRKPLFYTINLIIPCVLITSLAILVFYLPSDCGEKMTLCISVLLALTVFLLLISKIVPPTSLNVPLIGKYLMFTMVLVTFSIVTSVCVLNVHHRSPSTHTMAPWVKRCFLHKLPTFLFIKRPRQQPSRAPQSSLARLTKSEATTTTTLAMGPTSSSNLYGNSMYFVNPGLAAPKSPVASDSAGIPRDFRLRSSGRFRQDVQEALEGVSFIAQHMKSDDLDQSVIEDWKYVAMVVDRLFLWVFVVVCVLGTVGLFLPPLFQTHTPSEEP
Description for α3β4* nAChR: Preparation of Calf Adrenals
Frozen calf adrenals (−80° C.) were placed on ice for 30-60 min and allowed to thaw slowly before they were cut into small pieces. After determination of the wet weight (4-6 g), the tissue was homogenised in HSS-buffer (Ultraturrax at 750 rpm). The homogenate was centrifuged (30,000×g, 10 min, 4° C.), the pellets collected and washed. This procedure was repeated five times. The buffer volume used to re-suspend the pellets was calculated on the basis of the wet weight in a ratio 1:6.5.
The prepared tissues were stored in aliquots at −80° C. One hour before the experiments the tissues were slowly thawed, homogenised in HSS-buffer and centrifuged (25,000×g, 20 min, 4° C.). The pellets were re-suspended in fresh HSS-buffer and used for radioligand binding assays.
Competition Assay Using (±)-[^3H]Epibatidine ([^3H]Epi) and Calf Adrenals Membrane Fraction (α3β4*nAChR)
Each assay sample, with a total volume of 500 μL contained 200 μL of the test compound, 100 μL of (±)-[^3H]epibatidine, 100 μL of the calf adrenal membrane protein fraction (60-70 μg) and 100 μM of HSS-buffer. Non-specific binding was determined in the presence of 300 μM (−)-nicotine tartrate salt. The samples were homogenised and incubated for 90 min at 22° C. The incubation was terminated by vacuum filtration through glass fibre filters presoaked in 1% poly(ethyleneimine). The filters were rinsed three times with TRIS-buffer, punched out and transferred into 4 mL scintillation vials. The scintillation vials were filled with scintillation cocktail (2 mL) and the radioactivity was measured using a liquid scintillation counter.

In the case of `O=c1c(-c2ccccc2)ccc2n1C[C@@H]1CNC[C@H]2C1` [93e, 3-Phenyl-cytisine], the Ki on α3β4* nAChR and at (α1)2β1γδ nAChR was over 10 µM in each case.
As for `O=c1c(-c2cccc([N+](=O)[O-])c2)ccc2n1C[C@@H]1CNC[C@H]2C1` [94e, 3-(3′-Nitro-phenyl)-cytisine], the Ki (in general, a measure of affinity in units of concentration, obtained from inhibition or displacement) at α4β2* nAChR is 0.023 µM; on α7* nAChR it was over 10 µM; on α3β4* nAChR it was over 2 µM; at (α1)2β1γδ nAChR, over 10 µM.
For `Cc1cccc(-c2ccc3n(c2=O)C[C@@H]2CNC[C@H]3C2)c1` [95e, 3-(3′-Methyl-phenyl)-cytisine], the Ki is 0.028 µM at α4β2* nAChR, over 10 µM at α7* nAChR, over 10 µM on α3β4* nAChR and over 10 µM on (α1)2β1γδ nAChR.
For `O=c1c(-c2cccc(C(F)(F)F)c2)ccc2n1C[C@@H]1CNC[C@H]2C1` [96e, 3-(3′-Trifluoromethyl-phenyl)-cytisine], the inhibitory constant (Ki) at α4β2* nAChR is 0.0083 µM; at α7* nAChR it was over 10 µM; at α3β4* nAChR, 3.7 µM; at (α1)2β1γδ nAChR, over 10 µM.
As to `O=c1c(-c2cccc(OC(F)(F)F)c2)ccc2n1C[C@@H]1CNC[C@H]2C1` [97e, 3-(3′-Trifluoromethoxy-phenyl)-cytisine], the Ki is 0.067 µM at α4β2* nAChR, over 10 µM on α7* nAChR, over 10 µM on α3β4* nAChR and over 10 µM on (α1)2β1γδ nAChR.
Regarding `O=c1c(-c2cccc(Cl)c2)ccc2n1C[C@@H]1CNC[C@H]2C1` [98e, 3-(3′-Chloro-phenyl)-cytisine], the Ki at α4β2* nAChR is 0.199 µM; at α7* nAChR it was over 10 µM; on α3β4* nAChR, over 10 µM; on (α1)2β1γδ nAChR it was over 10 µM.
For `O=c1c(-c2cccc(F)c2)ccc2n1C[C@@H]1CNC[C@H]2C1` [99e, 3-(3′-Fluoro-phenyl)-cytisine], the Ki on α4β2* nAChR is 0.0057 µM; on α7* nAChR, over 10 µM; at α3β4* nAChR it was 1.2 µM; on (α1)2β1γδ nAChR, over 10 µM.
Turning to `O=c1c(-c2cccc(-c3ccccc3)c2)ccc2n1C[C@@H]1CNC[C@H]2C1` [100e, 3-(Biphenyl-3′-yl)-cytisine], the Ki is 0.2 µM on α4β2* nAChR, over 10 µM on α7* nAChR, over 10 µM at α3β4* nAChR and over 10 µM at (α1)2β1γδ nAChR.
With `O=c1ccc(-c2ccccc2)c2n1C[C@@H]1CNC[C@H]2C1` [103e, 5-Phenyl-cytisine], the Ki at α4β2* nAChR was 0.045 µM; on α7* nAChR, over 10 µM; at α3β4* nAChR, over 10 µM; at (α1)2β1γδ nAChR, over 10 µM.
Turning to `O=c1ccc(-c2cccc([N+](=O)[O-])c2)c2n1C[C@@H]1CNC[C@H]2C1` [104e, 5-(3′-Nitro-phenyl)-cytisine], the inhibitory constant (Ki) on α4β2* nAChR is 0.0037 µM; at α7* nAChR it was over 10 µM; at α3β4* nAChR it was 0.481 µM; at (α1)2β1γδ nAChR it was over 10 µM.
For the compound `Cc1cccc(-c2ccc(=O)n3c2[C@H]2CNC[C@H](C2)C3)c1` [105e, 5-(3′-Methyl-phenyl)-cytisine], the Ki at α4β2* nAChR was 0.024 µM; at α7* nAChR, over 10 µM; at α3β4* nAChR it was over 10 µM; at (α1)2β1γδ nAChR, over 10 µM.
With `O=c1ccc(-c2cccc(C(F)(F)F)c2)c2n1C[C@@H]1CNC[C@H]2C1` [106e, 5-(3′-Trifluoromethyl-phenyl)-cytisine], the Ki on α4β2* nAChR is 0.055 µM; on α7* nAChR, over 10 µM; on α3β4* nAChR, over 10 µM; on (α1)2β1γδ nAChR it was over 10 µM.
Turning to `O=c1ccc(-c2cccc(OC(F)(F)F)c2)c2n1C[C@@H]1CNC[C@H]2C1` [107e, 5-(3′-Trifluoromethoxy-phenyl)-cytisine], the Ki at α4β2* nAChR is 0.023 µM; at α7* nAChR it was over 10 µM; at α3β4* nAChR, over 10 µM; on (α1)2β1γδ nAChR, over 10 µM.
On to `O=c1ccc(-c2cccc(Cl)c2)c2n1C[C@@H]1CNC[C@H]2C1` [108e, 5-(3′-Chloro-phenyl)-cytisine], for which the Ki was 0.17 µM on α4β2* nAChR, over 10 µM at α7* nAChR, over 10 µM at α3β4* nAChR and over 10 µM on (α1)2β1γδ nAChR.
Take `O=c1ccc(-c2cccc(F)c2)c2n1C[C@@H]1CNC[C@H]2C1` [109e, 5-(3′-Fluoro-phenyl)-cytisine]: the Ki on α4β2* nAChR was 0.3 µM; on α7* nAChR, over 10 µM; on α3β4* nAChR, over 2 µM; at (α1)2β1γδ nAChR it was over 10 µM.
For `O=c1ccc(-c2cccc(-c3ccccc3)c2)c2n1C[C@@H]1CNC[C@H]2C1` [110e, 5-(Biphenyl-3′-yl)-cytisine], the Ki on α4β2* nAChR was 0.19 µM; at α7* nAChR it was over 10 µM; at α3β4* nAChR, over 10 µM; at (α1)2β1γδ nAChR, over 10 µM.
Take `O=c1c(-c2ccc3[nH]ccc3c2)ccc2n1C[C@@H]1CNC[C@H]2C1` [117e, 3-(1H-Indol-5′-yl)-cytisine]: the Ki is 0.853 µM on α4β2* nAChR, over 10 µM on α7* nAChR, over 10 µM at α3β4* nAChR and over 10 µM on (α1)2β1γδ nAChR.
With `O=c1c(-c2ccc3c(c2)OCO3)ccc2n1C[C@@H]1CNC[C@H]2C1` [118e, 3-(3′,4′-Methylenedioxy-phenyl)-cytisine], the Ki at α3β4* nAChR and at (α1)2β1γδ nAChR was over 10 µM each time.
Regarding `O=c1c(-c2cccnc2)ccc2n1CC1CNCC2C1` (stereo not drawn) [119e, 3-(Pyridin-3′-yl)-cytisine], on α7* nAChR, the Ki was over 10 µM.
Turning to `O=c1c(-c2ccncc2)ccc2n1C[C@@H]1CNC[C@H]2C1` [120e, 3-(Pyridin-4′-yl)-cytisine], the Ki at (α1)2β1γδ nAChR was over 10 µM.
On to `O=c1c(-c2cccc3cccnc23)ccc2n1C[C@@H]1CNC[C@H]2C1` [121e, 3-Quinolin-8′-yl-cytisine], for which the Ki on α4β2* nAChR was 0.095 µM; on α7* nAChR it was over 10 µM; on α3β4* nAChR, over 10 µM; on (α1)2β1γδ nAChR, over 10 µM.
Regarding `Cn1cc(-c2ccc3n(c2=O)CC2CNCC3C2)cn1` (stereo not drawn) [122e, 3-(1-Methyl-1H-pyrazol-4′-yl)-cytisine], the Ki on α4β2* nAChR is 0.000177 µM; at α7* nAChR, over 10 µM; on α3β4* nAChR, 0.033 µM; at (α1)2β1γδ nAChR, over 5 µM.
Taken in the same sequence, the figures for `O=c1ccc(-c2ccc3[nH]ccc3c2)c2n1C[C@@H]1CNC[C@H]2C1` [123e, (1H-Indol-5′-yl)-cytisine] were 0.0204 µM, over 10 µM, over 10 µM and over 10 µM.
As to `O=c1c(-c2cccnc2)ccc2n1CC1CNCC2C1` (stereo not drawn) [drawing 100], the results for the Ki at α4β2* nAChR and at (α1)2β1γδ nAChR were 0.00091 µM and over 10 µM, respectively.
